Assay [1] has as its target T1, Lysine-specific demethylase 4A (Homo sapiens, UniProt O75164).
T1 sequence (O75164 whole entry): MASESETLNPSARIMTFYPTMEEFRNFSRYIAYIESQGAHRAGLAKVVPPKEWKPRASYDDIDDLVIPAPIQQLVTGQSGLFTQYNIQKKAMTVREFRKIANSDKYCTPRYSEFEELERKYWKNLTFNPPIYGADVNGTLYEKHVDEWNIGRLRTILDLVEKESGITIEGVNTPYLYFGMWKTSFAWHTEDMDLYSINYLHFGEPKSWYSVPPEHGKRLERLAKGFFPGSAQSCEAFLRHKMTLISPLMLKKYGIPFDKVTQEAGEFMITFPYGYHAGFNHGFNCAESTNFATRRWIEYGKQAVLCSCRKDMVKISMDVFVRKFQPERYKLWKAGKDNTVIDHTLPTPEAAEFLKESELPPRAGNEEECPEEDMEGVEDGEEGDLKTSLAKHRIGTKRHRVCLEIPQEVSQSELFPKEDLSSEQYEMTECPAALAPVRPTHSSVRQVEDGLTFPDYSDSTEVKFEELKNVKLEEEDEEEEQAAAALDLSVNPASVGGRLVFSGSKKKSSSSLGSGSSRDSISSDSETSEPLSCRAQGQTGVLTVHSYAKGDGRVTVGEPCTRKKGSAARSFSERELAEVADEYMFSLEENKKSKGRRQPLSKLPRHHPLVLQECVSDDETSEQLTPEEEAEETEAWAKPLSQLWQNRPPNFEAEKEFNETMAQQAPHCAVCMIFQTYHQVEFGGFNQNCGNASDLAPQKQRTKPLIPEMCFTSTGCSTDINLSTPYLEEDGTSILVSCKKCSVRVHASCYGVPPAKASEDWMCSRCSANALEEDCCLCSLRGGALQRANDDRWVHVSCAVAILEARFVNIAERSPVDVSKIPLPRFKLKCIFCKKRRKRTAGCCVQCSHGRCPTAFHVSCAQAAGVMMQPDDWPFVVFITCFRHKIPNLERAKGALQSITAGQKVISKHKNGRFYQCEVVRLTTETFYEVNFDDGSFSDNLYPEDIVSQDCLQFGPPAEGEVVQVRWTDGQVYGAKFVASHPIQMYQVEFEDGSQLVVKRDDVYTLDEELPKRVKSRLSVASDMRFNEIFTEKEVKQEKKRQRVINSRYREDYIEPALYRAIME
Nature of the assay: Inhibition of KDM4A (unknown origin) measured by AlphaScreen assay.

Assay [2] addresses T2, Lysine-specific demethylase 4C (Homo sapiens, UniProt Q9H3R0).
T2 sequence (Q9H3R0 whole entry): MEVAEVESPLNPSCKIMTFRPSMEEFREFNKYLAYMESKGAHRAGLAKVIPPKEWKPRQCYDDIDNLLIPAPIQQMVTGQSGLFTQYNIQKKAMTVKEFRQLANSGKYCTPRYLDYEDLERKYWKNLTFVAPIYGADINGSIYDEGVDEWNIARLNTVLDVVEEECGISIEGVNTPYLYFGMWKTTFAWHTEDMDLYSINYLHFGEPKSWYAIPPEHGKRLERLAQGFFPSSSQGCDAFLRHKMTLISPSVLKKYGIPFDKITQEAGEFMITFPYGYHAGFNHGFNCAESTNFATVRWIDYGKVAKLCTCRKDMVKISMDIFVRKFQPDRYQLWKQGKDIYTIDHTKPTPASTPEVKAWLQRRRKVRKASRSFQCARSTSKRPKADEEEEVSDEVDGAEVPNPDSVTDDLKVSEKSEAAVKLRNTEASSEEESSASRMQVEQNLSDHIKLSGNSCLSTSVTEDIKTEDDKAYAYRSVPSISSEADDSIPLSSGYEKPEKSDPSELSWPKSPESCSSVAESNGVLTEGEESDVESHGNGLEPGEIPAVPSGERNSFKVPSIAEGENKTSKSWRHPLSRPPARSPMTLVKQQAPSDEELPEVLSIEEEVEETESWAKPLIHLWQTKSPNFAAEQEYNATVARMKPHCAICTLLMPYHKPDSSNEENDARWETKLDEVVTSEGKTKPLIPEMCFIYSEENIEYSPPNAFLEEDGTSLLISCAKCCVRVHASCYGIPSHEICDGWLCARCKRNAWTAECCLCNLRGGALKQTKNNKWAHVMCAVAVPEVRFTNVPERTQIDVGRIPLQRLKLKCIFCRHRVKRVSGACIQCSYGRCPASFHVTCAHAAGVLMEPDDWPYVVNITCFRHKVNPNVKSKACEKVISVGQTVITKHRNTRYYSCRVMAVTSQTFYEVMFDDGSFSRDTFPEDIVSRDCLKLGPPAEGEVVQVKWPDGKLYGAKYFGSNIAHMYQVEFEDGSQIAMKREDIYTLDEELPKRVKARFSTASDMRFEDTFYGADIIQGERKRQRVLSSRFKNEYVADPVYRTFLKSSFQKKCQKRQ
Briefly: Inhibition of KDM4C (unknown origin) measured by AlphaScreen assay.

The target in assay [3] is Lysine-specific demethylase 5A (Homo sapiens, UniProt P29375). Briefly: Inhibition of KDM5A (unknown origin) measured by AlphaScreen assay.
The target of assay [4] is Lysine-specific demethylase 6B (Homo sapiens, UniProt O15054). Nature of the assay: Inhibition of KDM6B (unknown origin) measured by AlphaScreen assay.
In assay [5] the target is T1, Lysine-specific demethylase 4A. Briefly: Inhibition of KDM4A in human KYSE-150 cells assessed as increase in H3K9me3 level. Type of assay: cell-based, KYSE-150 cell line.
The next assay relates to KYSE-150 cell line. Nature of the assay: Antiproliferative activity against human KYSE-150 cells. Type of assay: functional.
For another assay, the system named is HL-60. Briefly: Antiproliferative activity against human HL-60 cells. The format is functional.
Assay [6] addresses T1, Lysine-specific demethylase 4A. Briefly: Inhibition of KDM4A (unknown origin) measured by formaldehyde dehydrogenase (FDH)-coupled fluorescence assay.
Assay [7] has the same target. Briefly: Inhibition of KDM4A (unknown origin) measured by LANCEUltra assay.
The target in assay [8] is T3, Lysine-specific demethylase 2A (Homo sapiens, UniProt Q9Y2K7).
T3 sequence (Q9Y2K7 whole entry): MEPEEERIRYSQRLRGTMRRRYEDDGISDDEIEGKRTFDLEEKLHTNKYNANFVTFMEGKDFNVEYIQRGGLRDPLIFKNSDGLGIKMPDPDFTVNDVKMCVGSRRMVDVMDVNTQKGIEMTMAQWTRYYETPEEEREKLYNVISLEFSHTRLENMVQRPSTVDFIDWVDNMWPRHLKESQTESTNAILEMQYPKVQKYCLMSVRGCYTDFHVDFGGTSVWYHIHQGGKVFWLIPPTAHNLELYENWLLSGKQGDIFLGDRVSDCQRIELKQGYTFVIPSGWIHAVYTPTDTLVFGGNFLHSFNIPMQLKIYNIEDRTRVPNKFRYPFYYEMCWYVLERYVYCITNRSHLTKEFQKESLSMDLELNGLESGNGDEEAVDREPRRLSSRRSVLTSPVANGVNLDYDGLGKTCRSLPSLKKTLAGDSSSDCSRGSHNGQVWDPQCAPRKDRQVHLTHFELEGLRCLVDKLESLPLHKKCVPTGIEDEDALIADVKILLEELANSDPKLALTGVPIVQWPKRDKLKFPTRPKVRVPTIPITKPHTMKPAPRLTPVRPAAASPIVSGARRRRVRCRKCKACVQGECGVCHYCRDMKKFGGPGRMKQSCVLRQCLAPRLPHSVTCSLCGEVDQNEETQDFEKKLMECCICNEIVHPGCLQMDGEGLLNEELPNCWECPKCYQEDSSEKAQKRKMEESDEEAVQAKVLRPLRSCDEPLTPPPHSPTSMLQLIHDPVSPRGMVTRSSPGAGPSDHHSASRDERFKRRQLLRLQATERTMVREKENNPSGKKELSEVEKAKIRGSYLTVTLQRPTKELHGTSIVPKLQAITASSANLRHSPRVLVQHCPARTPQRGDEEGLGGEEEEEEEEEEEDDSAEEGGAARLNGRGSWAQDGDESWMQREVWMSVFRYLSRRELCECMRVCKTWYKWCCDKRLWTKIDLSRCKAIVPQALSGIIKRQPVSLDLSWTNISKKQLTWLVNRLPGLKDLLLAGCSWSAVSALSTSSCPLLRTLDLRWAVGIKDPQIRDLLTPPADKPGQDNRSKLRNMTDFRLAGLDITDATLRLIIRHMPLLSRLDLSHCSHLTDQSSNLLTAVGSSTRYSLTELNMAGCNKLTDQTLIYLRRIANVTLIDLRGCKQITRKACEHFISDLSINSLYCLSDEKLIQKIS
Briefly: Inhibition of KDM2A in human MIA PaCa-2 cells assessed as induction of H3K36me2 measured by immunofluorescence assay. Type of assay: cell-based.

The target of assay [9] is T1, Lysine-specific demethylase 4A.

Positions of bridges follow the written chain, without caps; N, C: chain ends. Non-standard residues stand in square brackets, D forms with d. Residues, ends and D or L forms follow the SMILES beside them.

Chain of Lysine-specific demethylase 6B (O15054 whole entry): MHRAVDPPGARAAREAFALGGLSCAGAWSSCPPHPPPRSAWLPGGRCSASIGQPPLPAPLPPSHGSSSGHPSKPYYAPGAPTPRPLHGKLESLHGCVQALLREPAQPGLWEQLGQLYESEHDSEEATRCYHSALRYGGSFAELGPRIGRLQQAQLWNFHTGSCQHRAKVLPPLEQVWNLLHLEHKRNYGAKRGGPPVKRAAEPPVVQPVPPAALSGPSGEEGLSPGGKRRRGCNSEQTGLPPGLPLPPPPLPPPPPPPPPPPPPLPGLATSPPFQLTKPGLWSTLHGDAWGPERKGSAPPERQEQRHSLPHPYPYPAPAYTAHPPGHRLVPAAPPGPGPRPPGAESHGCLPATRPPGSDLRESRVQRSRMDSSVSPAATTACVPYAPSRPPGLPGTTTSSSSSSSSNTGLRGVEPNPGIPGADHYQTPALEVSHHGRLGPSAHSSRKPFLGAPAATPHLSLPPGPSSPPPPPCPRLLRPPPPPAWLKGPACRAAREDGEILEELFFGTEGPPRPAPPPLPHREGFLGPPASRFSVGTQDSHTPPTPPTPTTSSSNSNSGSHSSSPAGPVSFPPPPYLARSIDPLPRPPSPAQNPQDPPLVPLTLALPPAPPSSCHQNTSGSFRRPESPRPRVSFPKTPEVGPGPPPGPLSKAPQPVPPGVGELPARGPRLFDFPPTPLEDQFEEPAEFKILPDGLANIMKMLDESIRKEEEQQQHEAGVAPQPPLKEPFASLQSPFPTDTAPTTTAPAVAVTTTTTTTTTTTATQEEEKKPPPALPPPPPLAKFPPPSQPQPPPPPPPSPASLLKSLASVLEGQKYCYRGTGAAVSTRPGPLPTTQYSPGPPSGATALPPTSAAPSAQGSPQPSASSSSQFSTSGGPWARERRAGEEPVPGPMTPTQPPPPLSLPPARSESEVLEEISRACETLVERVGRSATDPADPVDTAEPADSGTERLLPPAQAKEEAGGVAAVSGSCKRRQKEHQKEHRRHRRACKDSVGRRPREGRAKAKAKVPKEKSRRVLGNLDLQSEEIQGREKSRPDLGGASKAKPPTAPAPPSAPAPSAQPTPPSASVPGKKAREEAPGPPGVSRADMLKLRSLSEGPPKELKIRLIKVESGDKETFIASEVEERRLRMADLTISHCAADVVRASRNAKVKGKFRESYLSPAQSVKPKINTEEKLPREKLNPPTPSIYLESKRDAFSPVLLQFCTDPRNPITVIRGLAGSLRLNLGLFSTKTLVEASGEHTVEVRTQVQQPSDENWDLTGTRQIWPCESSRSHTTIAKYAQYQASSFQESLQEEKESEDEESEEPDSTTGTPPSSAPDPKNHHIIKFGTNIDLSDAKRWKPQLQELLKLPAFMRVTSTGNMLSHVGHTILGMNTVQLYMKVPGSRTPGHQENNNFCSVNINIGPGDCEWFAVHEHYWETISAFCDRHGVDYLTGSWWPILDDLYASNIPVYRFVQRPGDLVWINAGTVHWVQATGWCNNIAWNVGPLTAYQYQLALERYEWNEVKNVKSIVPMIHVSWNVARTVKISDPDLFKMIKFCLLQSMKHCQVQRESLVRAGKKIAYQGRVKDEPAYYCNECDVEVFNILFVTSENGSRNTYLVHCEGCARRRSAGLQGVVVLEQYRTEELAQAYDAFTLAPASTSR
Chain of Lysine-specific demethylase 5A (P29375 whole entry): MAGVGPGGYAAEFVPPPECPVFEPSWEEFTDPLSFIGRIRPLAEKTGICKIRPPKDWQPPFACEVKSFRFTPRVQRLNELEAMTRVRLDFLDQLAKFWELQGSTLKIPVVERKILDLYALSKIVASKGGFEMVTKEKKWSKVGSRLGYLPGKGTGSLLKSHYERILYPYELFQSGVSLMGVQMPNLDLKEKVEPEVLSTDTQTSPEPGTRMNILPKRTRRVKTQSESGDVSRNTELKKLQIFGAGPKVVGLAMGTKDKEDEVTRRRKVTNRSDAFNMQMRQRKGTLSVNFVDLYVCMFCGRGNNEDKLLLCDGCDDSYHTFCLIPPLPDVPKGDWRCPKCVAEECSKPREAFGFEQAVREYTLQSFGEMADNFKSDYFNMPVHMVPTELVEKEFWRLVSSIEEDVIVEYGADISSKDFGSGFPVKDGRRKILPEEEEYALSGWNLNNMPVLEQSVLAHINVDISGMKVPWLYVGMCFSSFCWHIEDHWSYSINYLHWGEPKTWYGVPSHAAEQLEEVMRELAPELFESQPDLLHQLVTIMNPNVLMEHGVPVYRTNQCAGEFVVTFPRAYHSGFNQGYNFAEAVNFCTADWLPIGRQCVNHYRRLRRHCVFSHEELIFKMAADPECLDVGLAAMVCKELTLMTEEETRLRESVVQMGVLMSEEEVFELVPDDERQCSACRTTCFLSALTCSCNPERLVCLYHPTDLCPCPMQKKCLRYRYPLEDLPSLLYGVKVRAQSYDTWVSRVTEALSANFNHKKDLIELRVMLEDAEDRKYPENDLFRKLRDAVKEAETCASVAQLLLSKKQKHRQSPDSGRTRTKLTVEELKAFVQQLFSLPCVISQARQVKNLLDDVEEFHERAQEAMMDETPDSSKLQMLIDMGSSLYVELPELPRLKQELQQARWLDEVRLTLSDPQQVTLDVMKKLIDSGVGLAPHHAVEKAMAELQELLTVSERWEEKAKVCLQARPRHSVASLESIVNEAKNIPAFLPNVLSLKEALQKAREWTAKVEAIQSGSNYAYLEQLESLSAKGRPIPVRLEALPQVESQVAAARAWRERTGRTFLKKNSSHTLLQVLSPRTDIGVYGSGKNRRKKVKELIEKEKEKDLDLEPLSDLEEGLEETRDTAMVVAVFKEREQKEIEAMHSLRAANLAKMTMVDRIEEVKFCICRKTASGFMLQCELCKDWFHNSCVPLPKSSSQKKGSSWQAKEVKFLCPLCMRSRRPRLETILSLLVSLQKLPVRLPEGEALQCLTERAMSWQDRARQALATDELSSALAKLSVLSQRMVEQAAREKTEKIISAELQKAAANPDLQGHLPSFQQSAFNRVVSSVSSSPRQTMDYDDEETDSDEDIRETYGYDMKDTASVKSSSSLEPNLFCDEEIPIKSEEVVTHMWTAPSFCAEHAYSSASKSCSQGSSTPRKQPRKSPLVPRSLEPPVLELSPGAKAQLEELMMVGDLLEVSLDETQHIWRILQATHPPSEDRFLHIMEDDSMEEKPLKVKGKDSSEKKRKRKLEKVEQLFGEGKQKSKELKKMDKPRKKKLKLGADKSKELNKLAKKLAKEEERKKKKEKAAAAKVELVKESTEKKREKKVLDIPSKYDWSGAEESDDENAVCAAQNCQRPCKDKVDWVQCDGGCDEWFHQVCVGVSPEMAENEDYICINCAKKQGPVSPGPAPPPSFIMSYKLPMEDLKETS

`CC[C@H](C)[C@@H]1NC(=O)CNC(=O)[C@H](CO)NC(=O)[C@H](CCCNC(=N)N)NC(=O)[C@H](CCCNC(=N)N)NC(=O)[C@H](Cc2ccccc2)NC(=O)[C@H](CCCNC(=N)N)NC(=O)[C@H]([C@@H](C)O)NC(=O)[C@@H](Cc2ccc(O)cc2)NC(=O)CSC[C@@H](C(N)=O)NC(=O)[C@H](Cc2ccc(O)cc2)NC(=O)[C@H](Cc2ccc(O)cc2)NC(=O)[C@H](Cc2ccccc2)NC(=O)[C@H](C(C)C)NC1=O` ({CH2CO}-[dY]TRFRRSGIVFYYC-NH2; thioether N-14): the 50% inhibitory concentration (IC50) worked out at 6 nM in assay [1] and 2.2 nM in [2].

`COC1=C2C[C@@H](C)C[C@H](OC)[C@H](O)[C@@H](C)/C=C(\C)[C@H](OC(N)=O)[C@@H](OC)/C=C\C=C(/C)C(=O)NC(=CC1=O)C2=O` [GELDANAMYCIN]: the figures for the IC50 in assay [2], in assay [3] and in [4] were 700 nM, 130 nM and 400 nM, respectively.

For the molecule `Oc1ccccc1-c1nc(-c2ccccc2O)n(-c2ccccc2)n1`, in [5], the EC50 was found to be 3300 nM. Also, the results for the concentration for 50% growth inhibition (GI50) in the assay with KYSE-150 cell line and in the assay with HL-60 were 450 nM and 1700 nM, respectively.

`CC(C)[C@@H]1NC(=O)[C@@H](Cc2ccc(O)cc2)NC(=O)CSC[C@@H](C(N)=O)NC(=O)[C@H]([C@@H](C)O)NC(=O)[C@H](Cc2ccc(O)cc2)NC(=O)[C@H](Cc2c[nH]c3ccccc23)NC(=O)[C@H](CCCNC(=N)N)NC(=O)[C@H](Cc2c[nH]c3ccccc23)NC(=O)CNC(=O)[C@H](CO)NC(=O)[C@H](CCCNC(=N)N)NC(=O)[C@H]([C@@H](C)O)NC(=O)[C@H](CC(N)=O)NC(=O)[C@H](Cc2ccc(O)cc2)NC1=O` ({CH2CO}-[dY]VYNTRSGWRWYTC-NH2; thioether N-14): the IC50 in [1] and in assay [2] was 33 nM each time.

As for `COC(=O)c1ccc(-n2nc(-c3ccccc3O)nc2-c2ccccc2O)cc1`, the EC50 in assay [5] came out at 10000 nM. In addition, the GI50 came out at 450 nM in the assay with KYSE-150 cell line and 1700 nM with HL-60.

In the case of `Cc1c(O)c(=O)ccn1C` [DEFERIPRONE], the IC50 is 3220 nM in assay [6] and 3330 nM in assay [7].

For `CCCCCC[n+]1ccccc1C=Cc1ccc(N(C)C)cc1`, the half-maximal inhibitory concentration (IC50) in assay [8] and in assay [9] was 280 nM each time.

`O=C(O)c1ccc(-n2nc(-c3ccccc3O)nc2-c2ccccc2O)cc1` [DEFERASIROX]: the results for the IC50 in [6] and in [7] were 3220 nM and 3330 nM, respectively. In addition, in [5], the EC50 amounted to 40500 nM. Further, the GI50 is 3300 nM in the assay with KYSE-150 cell line and 5500 nM with HL-60.

On to `CC(=O)N(O)CCCCCNC(=O)CCC(=O)N(O)CCCCCNC(=O)CCC(=O)N(O)CCCCCN` [DEFEROXAMINE], for which the results for the IC50 in [6] and in assay [7] were 3220 nM and 3330 nM, respectively.

The values are drawn from ChEMBL document CHEMBL5137065, “Recent Advances with KDM4 Inhibitors and Potential Applications” (J Med Chem, 2022).
